In patent publication US10321682B2, “Pesticidal aryl pyrrole nitrile compound, preparation method for same, uses thereof, agricultural pesticide, and pest control method” (HENAN GOODDAYS BIOLOGY DEVELOPMENT CO., LTD., priority 2016, dated 2019):
Converted amounts (≈) assume the structure as drawn. Read-outs that look alike come from different tables or passages of the source.

Assays:
[1] = Acute oral toxicity in rats; settings: both sexes, rat, in vivo, both female rats and male rats
[2] = Toxicity to Japanese carp; settings: in vivo
[3] = Acute percutaneous toxicity in rats; settings: both sexes, rat, in vivo, topical; both female rats and male rats
rats = settings: cited from earlier work

Row | Structure (SMILES) | LD50 [1] | LC50 [2] | LD50 [3] | acute oral LD50 (rats; female rats) | acute oral LD50 (rats; male rats)
1 | N#Cc1c(Br)c(C(F)(F)F)n(Cc2cnc(Cl)s2)c1-c1ccc(Cl)cc1 [4-bromo-2-(4-chlorophenyl)-1-(2-chloro-5-thiazolylmethyl)-5-trifluoromethylpyrrole-3-carbonitrile] | > 5000 mg/kg | 2.5 µg/mL (≈ 5.2 µM) | > 2000 mg/kg | – | –
2 | CCOCn1c(-c2ccc(Cl)cc2)c(C#N)c(Br)c1C(F)(F)F [Chujin, 4-bromo-2-(4-chlorophenyl)-1-ethoxymethyl-5-trifluoromethylpyrrole-3-carbonitrile] | – | – | – | 459 mg/kg | 223 mg/kg
